# Where two headings read alike, the source gives them in different places.
# Key:
# Assay in all cases: KinomeScan kinase panel, single concentration 10 µM
# Type in all cases: binding
# KinomeScan kinase panel [1] = target: T1, KinomeScan kinase panel (Homo sapiens, UniProt Q08345); conditions: DDR1, 10 µM; read-out: score (%)
# T1 construct: purchased DiscoveRx (KinomeScan)
# KinomeScan kinase panel [2] = target: T2, KinomeScan kinase panel (Homo sapiens, UniProt P00519); conditions: read-out: score (%)
# T2 construct: purchased DiscoveRx (KinomeScan)
# KinomeScan kinase panel [3] = target: T3, KinomeScan kinase panel (Homo sapiens, UniProt P54753); conditions: EPHB3, 10 µM; read-out: score (%)
# T3 construct: purchased DiscoveRx (KinomeScan)
# T3 sequence (P54753 34-998): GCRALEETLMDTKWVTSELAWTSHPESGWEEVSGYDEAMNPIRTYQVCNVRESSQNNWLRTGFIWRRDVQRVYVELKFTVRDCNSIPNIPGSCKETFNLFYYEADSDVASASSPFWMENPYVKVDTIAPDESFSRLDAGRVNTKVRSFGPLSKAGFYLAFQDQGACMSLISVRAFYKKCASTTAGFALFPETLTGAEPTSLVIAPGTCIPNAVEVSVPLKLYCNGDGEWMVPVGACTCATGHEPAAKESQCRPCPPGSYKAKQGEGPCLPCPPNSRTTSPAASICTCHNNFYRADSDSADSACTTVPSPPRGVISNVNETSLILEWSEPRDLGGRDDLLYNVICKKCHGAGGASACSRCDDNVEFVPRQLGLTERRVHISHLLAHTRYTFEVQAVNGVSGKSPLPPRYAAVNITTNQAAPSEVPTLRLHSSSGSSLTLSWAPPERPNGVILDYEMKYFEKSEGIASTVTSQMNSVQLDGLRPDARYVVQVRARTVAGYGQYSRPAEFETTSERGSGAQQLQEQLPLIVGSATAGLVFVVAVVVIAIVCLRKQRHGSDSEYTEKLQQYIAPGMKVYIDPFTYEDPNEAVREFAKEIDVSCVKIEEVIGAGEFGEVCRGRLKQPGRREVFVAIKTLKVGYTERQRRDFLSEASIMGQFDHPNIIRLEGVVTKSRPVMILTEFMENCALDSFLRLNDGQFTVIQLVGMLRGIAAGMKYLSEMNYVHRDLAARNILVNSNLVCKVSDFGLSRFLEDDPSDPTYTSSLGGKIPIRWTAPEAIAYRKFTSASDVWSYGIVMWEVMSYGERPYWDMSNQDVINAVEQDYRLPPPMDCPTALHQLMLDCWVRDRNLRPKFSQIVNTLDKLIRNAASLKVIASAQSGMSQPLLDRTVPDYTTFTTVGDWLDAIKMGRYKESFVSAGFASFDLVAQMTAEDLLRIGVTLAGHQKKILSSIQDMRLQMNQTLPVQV
# KinomeScan kinase panel [4] = target: T4, KinomeScan kinase panel (Homo sapiens, UniProt Q13177); conditions: PAK2, 10 µM; read-out: score (%)
# T4 construct: purchased DiscoveRx (KinomeScan)
# KinomeScan kinase panel [5] = target: T5, KinomeScan kinase panel (Homo sapiens, UniProt Q02156); conditions: 10 µM, read-out: score (%)
# T5 construct: purchased DiscoveRx (KinomeScan)
# T5 sequence (Q02156 1-737): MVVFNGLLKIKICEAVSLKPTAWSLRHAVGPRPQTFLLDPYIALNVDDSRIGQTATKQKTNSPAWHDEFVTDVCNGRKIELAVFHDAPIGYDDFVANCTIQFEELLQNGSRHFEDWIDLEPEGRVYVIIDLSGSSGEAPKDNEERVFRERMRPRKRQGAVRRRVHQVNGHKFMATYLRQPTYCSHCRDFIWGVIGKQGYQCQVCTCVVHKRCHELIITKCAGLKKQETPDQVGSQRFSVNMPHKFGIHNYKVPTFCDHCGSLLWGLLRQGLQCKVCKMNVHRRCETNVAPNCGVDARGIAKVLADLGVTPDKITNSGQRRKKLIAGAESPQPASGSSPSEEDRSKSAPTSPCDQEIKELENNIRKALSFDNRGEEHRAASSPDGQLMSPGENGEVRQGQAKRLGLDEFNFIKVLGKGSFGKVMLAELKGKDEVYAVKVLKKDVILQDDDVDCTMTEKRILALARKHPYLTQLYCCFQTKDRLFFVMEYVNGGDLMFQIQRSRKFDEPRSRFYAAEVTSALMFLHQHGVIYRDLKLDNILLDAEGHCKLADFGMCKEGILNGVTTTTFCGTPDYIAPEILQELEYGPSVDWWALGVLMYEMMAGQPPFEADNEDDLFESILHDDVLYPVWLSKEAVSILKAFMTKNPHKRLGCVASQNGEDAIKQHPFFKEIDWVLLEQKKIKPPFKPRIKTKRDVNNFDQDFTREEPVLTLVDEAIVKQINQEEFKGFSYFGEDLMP
# KinomeScan kinase panel [6] = target: T6, KinomeScan kinase panel (Homo sapiens, UniProt Q32MK0); conditions: MLCK, 10 µM; read-out: score (%)
# T6 construct: purchased DiscoveRx (KinomeScan)
# T6 sequence (Q32MK0 1-819): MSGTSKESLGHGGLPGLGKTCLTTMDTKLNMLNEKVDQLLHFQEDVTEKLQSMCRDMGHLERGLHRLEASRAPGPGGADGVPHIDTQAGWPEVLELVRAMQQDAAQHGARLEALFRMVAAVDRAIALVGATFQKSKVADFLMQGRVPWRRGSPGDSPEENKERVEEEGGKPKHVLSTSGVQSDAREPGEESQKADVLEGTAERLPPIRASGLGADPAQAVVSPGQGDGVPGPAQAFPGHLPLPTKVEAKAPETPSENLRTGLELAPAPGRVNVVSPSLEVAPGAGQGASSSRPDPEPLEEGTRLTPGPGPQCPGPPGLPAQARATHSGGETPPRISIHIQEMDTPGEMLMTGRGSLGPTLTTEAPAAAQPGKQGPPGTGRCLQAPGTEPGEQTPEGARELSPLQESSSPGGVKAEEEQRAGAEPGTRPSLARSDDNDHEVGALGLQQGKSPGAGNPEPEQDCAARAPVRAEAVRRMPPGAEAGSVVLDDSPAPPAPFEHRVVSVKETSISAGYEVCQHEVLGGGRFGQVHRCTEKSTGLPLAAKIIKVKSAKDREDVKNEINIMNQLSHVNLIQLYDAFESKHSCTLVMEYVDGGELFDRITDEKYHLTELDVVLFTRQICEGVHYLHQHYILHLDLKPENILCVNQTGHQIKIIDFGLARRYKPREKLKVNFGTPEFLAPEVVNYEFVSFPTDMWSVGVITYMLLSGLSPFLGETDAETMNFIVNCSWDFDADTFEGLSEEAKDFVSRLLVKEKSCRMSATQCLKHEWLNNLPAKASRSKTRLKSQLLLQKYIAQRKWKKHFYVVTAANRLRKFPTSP
# KinomeScan kinase panel [7] = target: T7, KinomeScan kinase panel (Homo sapiens, UniProt P07948); conditions: LYN, 10 µM; read-out: score (%)
# T7 construct: purchased DiscoveRx (KinomeScan)
# KinomeScan kinase panel [8] = target: T8, KinomeScan kinase panel (Homo sapiens, UniProt P10721); conditions: KIT, 10 µM; read-out: score (%)
# T8 construct: purchased DiscoveRx (KinomeScan)
# T8 sequence (P10721 26-976): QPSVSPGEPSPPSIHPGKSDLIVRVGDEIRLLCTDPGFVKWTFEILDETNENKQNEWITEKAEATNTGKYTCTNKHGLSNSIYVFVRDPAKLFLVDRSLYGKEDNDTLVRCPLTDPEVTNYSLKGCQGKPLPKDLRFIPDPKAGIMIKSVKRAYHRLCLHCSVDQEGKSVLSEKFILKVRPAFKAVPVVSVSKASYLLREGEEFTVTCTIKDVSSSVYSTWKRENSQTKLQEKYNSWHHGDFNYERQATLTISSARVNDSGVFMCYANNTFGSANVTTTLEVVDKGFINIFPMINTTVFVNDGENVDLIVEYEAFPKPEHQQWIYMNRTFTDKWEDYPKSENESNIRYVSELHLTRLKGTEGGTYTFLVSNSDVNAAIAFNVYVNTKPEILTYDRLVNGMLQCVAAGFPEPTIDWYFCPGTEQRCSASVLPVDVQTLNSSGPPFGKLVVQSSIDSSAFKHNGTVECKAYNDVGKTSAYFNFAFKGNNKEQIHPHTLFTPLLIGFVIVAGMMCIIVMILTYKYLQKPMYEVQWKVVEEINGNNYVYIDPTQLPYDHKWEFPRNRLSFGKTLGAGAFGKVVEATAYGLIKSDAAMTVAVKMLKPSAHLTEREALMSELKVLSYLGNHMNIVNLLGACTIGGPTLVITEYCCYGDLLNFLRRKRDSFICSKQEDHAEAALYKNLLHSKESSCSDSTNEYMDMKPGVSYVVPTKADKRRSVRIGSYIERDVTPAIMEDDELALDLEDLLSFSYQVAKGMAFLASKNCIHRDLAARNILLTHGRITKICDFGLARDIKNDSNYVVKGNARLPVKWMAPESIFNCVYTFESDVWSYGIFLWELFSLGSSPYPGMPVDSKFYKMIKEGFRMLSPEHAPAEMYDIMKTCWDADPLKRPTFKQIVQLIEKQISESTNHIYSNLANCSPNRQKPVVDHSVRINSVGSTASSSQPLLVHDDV
# T2 sequence (P00519 whole entry): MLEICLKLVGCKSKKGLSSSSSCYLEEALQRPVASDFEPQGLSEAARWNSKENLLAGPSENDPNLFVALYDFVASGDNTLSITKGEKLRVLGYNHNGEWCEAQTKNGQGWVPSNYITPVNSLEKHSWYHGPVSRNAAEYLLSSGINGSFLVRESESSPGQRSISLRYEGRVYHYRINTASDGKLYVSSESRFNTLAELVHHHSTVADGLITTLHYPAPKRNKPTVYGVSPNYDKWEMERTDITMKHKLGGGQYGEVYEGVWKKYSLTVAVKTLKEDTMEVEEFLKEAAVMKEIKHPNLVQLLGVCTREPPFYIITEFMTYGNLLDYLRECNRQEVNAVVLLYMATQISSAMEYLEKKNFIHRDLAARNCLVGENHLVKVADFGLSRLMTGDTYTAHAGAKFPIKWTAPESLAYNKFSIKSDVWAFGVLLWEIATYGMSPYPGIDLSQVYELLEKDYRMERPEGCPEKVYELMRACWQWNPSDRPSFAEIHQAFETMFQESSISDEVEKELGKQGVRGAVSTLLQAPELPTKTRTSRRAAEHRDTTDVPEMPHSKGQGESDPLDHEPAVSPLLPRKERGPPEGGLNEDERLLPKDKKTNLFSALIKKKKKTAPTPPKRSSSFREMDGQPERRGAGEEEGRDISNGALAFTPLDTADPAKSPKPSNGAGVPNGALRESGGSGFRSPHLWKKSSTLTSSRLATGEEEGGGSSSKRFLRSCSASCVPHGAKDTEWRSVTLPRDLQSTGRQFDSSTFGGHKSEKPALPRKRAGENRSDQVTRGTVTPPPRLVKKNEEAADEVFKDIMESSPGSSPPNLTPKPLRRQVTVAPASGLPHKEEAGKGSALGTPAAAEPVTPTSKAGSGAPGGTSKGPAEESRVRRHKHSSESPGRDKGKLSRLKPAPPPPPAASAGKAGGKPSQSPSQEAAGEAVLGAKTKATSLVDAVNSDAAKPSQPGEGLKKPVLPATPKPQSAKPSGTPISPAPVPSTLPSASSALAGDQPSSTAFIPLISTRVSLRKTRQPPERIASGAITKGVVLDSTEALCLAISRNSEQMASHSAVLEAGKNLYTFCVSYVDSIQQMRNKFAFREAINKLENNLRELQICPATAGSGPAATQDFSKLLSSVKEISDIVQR
# T1 sequence (Q08345 19-913): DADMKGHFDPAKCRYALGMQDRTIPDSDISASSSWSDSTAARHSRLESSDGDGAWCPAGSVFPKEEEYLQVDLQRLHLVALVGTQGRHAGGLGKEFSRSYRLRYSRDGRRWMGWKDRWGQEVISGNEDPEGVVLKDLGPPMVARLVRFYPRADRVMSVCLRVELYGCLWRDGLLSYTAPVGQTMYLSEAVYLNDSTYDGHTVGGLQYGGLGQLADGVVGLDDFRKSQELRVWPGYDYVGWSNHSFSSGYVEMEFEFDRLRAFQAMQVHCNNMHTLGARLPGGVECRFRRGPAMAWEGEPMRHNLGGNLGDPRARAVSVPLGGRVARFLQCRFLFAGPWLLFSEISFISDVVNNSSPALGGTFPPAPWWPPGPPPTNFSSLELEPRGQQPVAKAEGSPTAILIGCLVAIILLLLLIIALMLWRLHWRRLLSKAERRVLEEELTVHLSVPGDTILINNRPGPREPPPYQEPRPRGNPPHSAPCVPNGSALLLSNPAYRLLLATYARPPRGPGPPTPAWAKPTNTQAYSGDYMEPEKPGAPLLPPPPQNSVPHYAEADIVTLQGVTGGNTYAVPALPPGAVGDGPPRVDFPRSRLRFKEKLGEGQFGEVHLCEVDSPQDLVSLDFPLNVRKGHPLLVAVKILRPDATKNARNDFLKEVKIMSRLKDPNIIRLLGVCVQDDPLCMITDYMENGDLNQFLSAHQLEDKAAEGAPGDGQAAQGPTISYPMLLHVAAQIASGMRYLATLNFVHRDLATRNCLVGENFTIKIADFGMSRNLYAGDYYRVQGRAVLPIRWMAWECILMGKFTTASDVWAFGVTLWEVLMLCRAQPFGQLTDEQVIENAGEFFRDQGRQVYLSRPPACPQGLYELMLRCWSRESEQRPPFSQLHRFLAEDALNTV
# T7 sequence (P07948 whole entry): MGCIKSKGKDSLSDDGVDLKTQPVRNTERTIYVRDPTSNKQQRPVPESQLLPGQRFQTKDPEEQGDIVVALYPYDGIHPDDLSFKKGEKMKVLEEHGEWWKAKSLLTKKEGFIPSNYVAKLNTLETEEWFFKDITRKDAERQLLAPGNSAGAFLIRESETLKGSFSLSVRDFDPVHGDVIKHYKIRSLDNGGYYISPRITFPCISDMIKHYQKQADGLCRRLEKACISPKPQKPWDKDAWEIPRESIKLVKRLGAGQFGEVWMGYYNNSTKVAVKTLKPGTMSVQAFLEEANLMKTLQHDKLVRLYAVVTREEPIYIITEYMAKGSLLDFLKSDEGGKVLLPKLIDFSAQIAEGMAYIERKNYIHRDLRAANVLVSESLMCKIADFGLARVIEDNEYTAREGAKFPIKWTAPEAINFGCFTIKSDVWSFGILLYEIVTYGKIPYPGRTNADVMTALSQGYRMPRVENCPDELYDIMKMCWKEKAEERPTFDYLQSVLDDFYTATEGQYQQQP
# T4 sequence (Q13177 whole entry): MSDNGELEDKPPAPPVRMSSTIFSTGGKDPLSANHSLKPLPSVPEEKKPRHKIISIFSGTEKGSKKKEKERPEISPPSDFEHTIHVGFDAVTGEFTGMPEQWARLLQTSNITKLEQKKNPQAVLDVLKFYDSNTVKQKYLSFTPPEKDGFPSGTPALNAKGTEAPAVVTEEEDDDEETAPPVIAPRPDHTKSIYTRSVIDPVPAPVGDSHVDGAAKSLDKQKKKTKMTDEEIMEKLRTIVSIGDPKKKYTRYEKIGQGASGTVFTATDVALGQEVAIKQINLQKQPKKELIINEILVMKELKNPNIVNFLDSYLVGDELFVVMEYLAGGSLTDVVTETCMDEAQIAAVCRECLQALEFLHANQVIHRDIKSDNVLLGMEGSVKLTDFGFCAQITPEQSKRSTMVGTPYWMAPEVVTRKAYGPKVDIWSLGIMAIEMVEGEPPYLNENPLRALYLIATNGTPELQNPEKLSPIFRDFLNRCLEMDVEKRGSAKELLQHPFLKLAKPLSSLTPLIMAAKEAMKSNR
Compound,remaining binding at 10 µM (KinomeScan kinase panel [1]),"remaining binding at 10 µM (KinomeScan kinase panel [2]; ABL1, 10 µM)",remaining binding at 10 µM (KinomeScan kinase panel [3]),remaining binding at 10 µM (KinomeScan kinase panel [4]),remaining binding at 10 µM (KinomeScan kinase panel [5]; PRKCE),remaining binding at 10 µM (KinomeScan kinase panel [6]),remaining binding at 10 µM (KinomeScan kinase panel [7]),remaining binding at 10 µM (KinomeScan kinase panel [8]),"remaining binding at 10 µM (KinomeScan kinase panel [2]; ABL1-nonphosphorylated, 10 µM)","remaining binding at 10 µM (KinomeScan kinase panel [2]; ABL1-phosphorylated, 10 µM)",remaining binding at 10 µM (KinomeScan kinase panel [5]; kinase PRKCE)
CCN1CCN(Cc2ccc(NC(=O)c3ccc(C)c(NC(=O)c4cncc(-c5cccs5)c4)c3)cc2C(F)(F)F)CC1 [ALW-II-41-27],0.15%,0.05%,0.3%,> 30%,5%,> 30%,0.1%,0%,,,
CCN1CCN(Cc2ccc(NC(=O)c3ccc(C)c(C#Cc4cccnc4)c3)cc2C(F)(F)F)CC1 [XMD15-44],0.05%,,0.25%,84%,,> 30%,0.05%,0%,0%,0%,54%
"CCN1CCN(Cc2ccc(NC(=O)c3ccc(C)c(/C=C/c4cnc5[nH]ccc5c4Cl)c3)cc2C(F)(F)F)CC1 [HG-6-63-01, (E)-3-(2-(4-chloro-1H-pyrrolo[2,3-b]pyridin-5-yl)vinyl)-N-(4-((4-ethylpiperazin-1-yl)methyl)-3-(trifluoromethyl)phenyl)-4-methylbenzamide]",0.1%,0.3%,11%,> 30%,> 30%,5.9%,0.25%,0%,,,
